Some test systems named below: OVCAR-5 ovarian; EKVX NSCLC; SK-OV-3 ovarian; U251 CNS; DU-145 prostate; HT29 colon; MDA-N; PC-3 prostate; HCC-2998 colon; SN12C renal; NCI-H23 lung; SF-268 CNS; MCF7 breast; SF-539 CNS; K-562 leukemia; NCI-H460 lung; KM12 colon; MDA-MB-231 breast; HS 578T breast.
Assay in all cases: inhibition of tumour cell growth, NCI panel, 48 h

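The compound was tested at five concentrations on cells cultured in 96-well plates, with a 48-hour exposure period. The concentration for full growth arrest is given as TGI.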

Take `Cn1c(SCc2c[nH]c3ccccc23)nnc1-c1ccc(Cl)cc1Cl`: the TGI with OVCAR-5 ovarian turned out to be 86.7 µM; with EKVX NSCLC, 49.6 µM; in the assay with SK-OV-3 ovarian, 59.4 µM; in the assay on U251 CNS it was 38.1 µM; with DU-145 prostate, 78.5 µM; in the assay with HT29 colon it was 35.5 µM. Further, the TGI in the assay on MDA-N is 78.9 µM; with PC-3 prostate, 36.5 µM; in the assay on HCC-2998 colon it was 26.1 µM; in the assay on SN12C renal, 47.5 µM; in the assay with NCI-H23 lung it was 69.9 µM; in the assay with SF-268 CNS, > 100 µM. The TGI is 84.9 µM in the assay with MCF7 breast; 17.7 µM with SF-539 CNS; 24.9 µM with K-562 leukemia; 26.3 µM in the assay on NCI-H460 lung; 25.2 µM with KM12 colon; 66.3 µM in the assay with MDA-MB-231 breast. Further, the TGI with HS 578T breast was > 100 µM.
In the case of `COc1cccc(Nc2nc(NS(=O)(=O)c3cc(C)c(Cl)cc3S)n[nH]2)c1`, the TGI in the assay on OVCAR-5 ovarian, in the assay on EKVX NSCLC, in the assay on SK-OV-3 ovarian, with U251 CNS, in the assay with DU-145 prostate and in the assay with HT29 colon was > 100 µM each time. The TGI with MDA-N, in the assay on PC-3 prostate, in the assay with HCC-2998 colon, with SN12C renal, in the assay with NCI-H23 lung and in the assay on SF-268 CNS was > 100 µM each time. In addition, the TGI with MCF7 breast, with SF-539 CNS, with K-562 leukemia, in the assay on NCI-H460 lung, in the assay with KM12 colon and in the assay with MDA-MB-231 breast was > 100 µM each time. The TGI in the assay on HS 578T breast is > 100 µM.
Consider `O=C(c1ccccc1)c1ccc2nc3n(c2c1)C(c1c(Cl)cccc1Cl)SC3` (configuration not stated), for which the TGI with OVCAR-5 ovarian was > 100 µM; in the assay with EKVX NSCLC, 78.6 µM; in the assay with SK-OV-3 ovarian it was > 30.7 µM; in the assay with U251 CNS, > 100 µM; in the assay on DU-145 prostate, > 94.5 µM; in the assay on HT29 colon it was 31 µM. Further, the TGI is 3.84 µM with MDA-N; > 100 µM with PC-3 prostate; > 50.4 µM in the assay on HCC-2998 colon; > 68.7 µM in the assay on SN12C renal; 83.6 µM in the assay on NCI-H23 lung; > 100 µM in the assay on SF-268 CNS. Moreover, the TGI in the assay on MCF7 breast was > 100 µM; in the assay with SF-539 CNS, > 59.4 µM; in the assay with K-562 leukemia, > 100 µM; in the assay with NCI-H460 lung, > 51.9 µM; in the assay with KM12 colon, 19.5 µM; in the assay on MDA-MB-231 breast it was > 100 µM. Also, the TGI with HS 578T breast was > 65 µM.
As for `Cn1c(=O)n2n(c1=O)C(S(=O)c1ccccc1)C2` (configuration not stated), the TGI with OVCAR-5 ovarian, in the assay with EKVX NSCLC, in the assay with SK-OV-3 ovarian, in the assay with U251 CNS, in the assay on DU-145 prostate and in the assay with HT29 colon was > 100 µM in each case. In addition, the TGI in the assay with MDA-N, with PC-3 prostate, in the assay with HCC-2998 colon, in the assay with SN12C renal, in the assay on NCI-H23 lung and in the assay on SF-268 CNS was > 100 µM each time. The TGI in the assay with MCF7 breast, in the assay with SF-539 CNS, in the assay on K-562 leukemia, in the assay with NCI-H460 lung, in the assay with KM12 colon and in the assay with MDA-MB-231 breast was > 100 µM each time. Also, in the assay with HS 578T breast, the TGI was > 100 µM.
On to `CC1=NNC(=O)[C@H]2[C@H]1CCC1[C@@H]2CC[C@]2(C)[C@@H](O)CC[C@@H]12` (some centres not stated), for which the TGI with OVCAR-5 ovarian, in the assay with EKVX NSCLC, with SK-OV-3 ovarian, in the assay on U251 CNS, in the assay on DU-145 prostate and in the assay with HT29 colon was > 100 µM throughout. The TGI in the assay on MDA-N, with PC-3 prostate, in the assay on HCC-2998 colon, in the assay with SN12C renal, with NCI-H23 lung and in the assay on SF-268 CNS was > 100 µM throughout. Besides, the TGI in the assay with MCF7 breast, with SF-539 CNS, in the assay with K-562 leukemia, in the assay with NCI-H460 lung, in the assay with KM12 colon and with MDA-MB-231 breast was > 100 µM in each case. In addition, the TGI in the assay on HS 578T breast was > 100 µM.
On to `Cc1cc(NS(=O)(=O)c2ccc(NC(=O)c3ccc4nc5ccccc5c(Nc5ccc(S(=O)(=O)Nc6cc(C)on6)cc5)c4c3)cc2)no1`, for which the TGI with OVCAR-5 ovarian, with EKVX NSCLC, in the assay on SK-OV-3 ovarian, in the assay with U251 CNS, in the assay with DU-145 prostate and in the assay with HT29 colon was > 50 µM throughout. Further, the TGI in the assay with MDA-N, with PC-3 prostate, with HCC-2998 colon, in the assay with SN12C renal, in the assay on NCI-H23 lung and in the assay with SF-268 CNS was > 50 µM in each case. The TGI with MCF7 breast, with SF-539 CNS, in the assay with K-562 leukemia, in the assay with NCI-H460 lung, with KM12 colon and with MDA-MB-231 breast was > 50 µM each time. Further, in the assay with HS 578T breast, the TGI is > 50 µM.
Consider `O/N=C1\CSc2ccccc2C1`, for which the TGI in the assay on OVCAR-5 ovarian is > 100 µM; in the assay with EKVX NSCLC, 94.5 µM; in the assay on SK-OV-3 ovarian it was > 100 µM; with U251 CNS, > 100 µM; in the assay on DU-145 prostate, > 100 µM; in the assay on HT29 colon it was > 100 µM. For the same compound, the TGI in the assay with MDA-N, in the assay with PC-3 prostate, in the assay with HCC-2998 colon, in the assay with SN12C renal, in the assay with NCI-H23 lung and with SF-268 CNS was > 100 µM in each case. In addition, the TGI in the assay with MCF7 breast, in the assay with SF-539 CNS, with K-562 leukemia, with NCI-H460 lung, in the assay with KM12 colon and in the assay on MDA-MB-231 breast was > 100 µM in each case. In the assay on HS 578T breast, the TGI was > 100 µM.
In the case of `CC(=O)Oc1ccc(/C=C/C(=O)NCCOC(=O)/C=C/c2ccc(OC(C)=O)c(OC(C)=O)c2)cc1OC(C)=O`, the TGI in the assay with OVCAR-5 ovarian was 97.6 µM; in the assay with EKVX NSCLC it was > 100 µM; with SK-OV-3 ovarian, > 100 µM; in the assay with U251 CNS, > 100 µM; in the assay with DU-145 prostate, > 100 µM; in the assay with HT29 colon, > 100 µM. Further, the TGI was > 100 µM in the assay on MDA-N; > 100 µM with PC-3 prostate; > 100 µM in the assay with HCC-2998 colon; 68.5 µM with SN12C renal; 79.4 µM in the assay on NCI-H23 lung; > 100 µM in the assay with SF-268 CNS. For the same compound, the TGI with MCF7 breast, in the assay with SF-539 CNS, with K-562 leukemia, in the assay on NCI-H460 lung, in the assay on KM12 colon and with MDA-MB-231 breast was > 100 µM each time. In the assay on HS 578T breast, the TGI is > 100 µM.

(Values after PubChem BioAssay (NCI).)
